Experimental data: the RepoRT retention time repository (doi:10.1007/s11306-011-0298-z)

assay: RP, Waters ACQUITY UPLC HSS T3, 100 × 2.1 mm, 1.8 µm, 30 °C, 0.3 mL/min, estimated dead time 0.73 min; A: water + 0.1% formic acid, pH 3; B: methanol + 0.1% formic acid, pH 3; gradient (min/%B) 0/0 6/0 56/100 60/100; details: stereoisomer not certain

First: O=C(O)CCCCC(=O)O [adipic acid]
Second: CC(O)(CC(=O)O)C(=O)O (stereo not given) [citramalic acid]
The LC retention time of the first is 3-fold higher: 15.5 min for the first, 5.18 min for the second.

`OCC(O)C(O)C(O)CO` (stereo not given) [adonitol] and `O=CC(O)C(O)C(O)CO` (stereo not given) [arabinose] are within 1.5-fold of each other in LC retention time: 1.38 min for the first, 1.41 min for the second.

`OCC1OC(O)C(O)C(O)C1O` (stereo not given) [allose] and `OCC1OC(OC2C(CO)OC(O)C(O)C2O)C(O)C(O)C1O` (stereo not given) [cellobiose] are within 1.5-fold of each other in LC retention time: 1.35 min for the first, 1.55 min for the second.

`Cc1c(C)c2c(c(C)c1O)CCC(C)(CCCC(C)CCCC(C)CCCC(C)C)O2` (stereo not drawn) [alpha-tocopherol] and `CC(C)CCCC(C)C1CCC2C3CC=C4CC(O)CCC4(C)C3CCC12C` (stereo not given) [cholesterol] are within 1.5-fold of each other in LC retention time: 59.2 min for the first, 60.2 min for the second.

First: O=CC(O)C(O)C(O)C(O)CO (stereo not given) [altrose]
Second: O=C(O)C=C(CC(=O)O)C(=O)O [cis-acotinic acid]
The LC retention time of the first is 3.1-fold lower: 1.43 min for the first, 4.4 min for the second.

`Oc1ccc(C=C2c3cc(O)cc(O)c3C(c3ccc(O)cc3)C2c2cc(O)cc(O)c2)cc1` (stereo not given) [ampelopsin D + quadrangularin A] and `Oc1ccc(C2Oc3cc(O)c4c(c3C2c2cc(O)cc(O)c2)C2C(c3ccc(O)cc3)c3c(O)cc5c(c3C2C4c2ccc(O)cc2)C(c2cc(O)cc(O)c2)C(c2ccc(O)cc2)O5)cc1` (stereo not given) [ampelopsin H] are within 1.5-fold of each other in LC retention time: 26.2 min for the first, 29.8 min for the second.

`N#CC(OC1OC(COC2OC(CO)C(O)C(O)C2O)C(O)C(O)C1O)c1ccccc1` (stereo not given) [amygdalin] and `OCC1OC(Oc2cc3c(OC4OC(CO)C(O)C(O)C4O)cc(O)cc3[o+]c2-c2ccc(O)c(O)c2)C(O)C(O)C1O` (stereo not given) [cyanidin-3,5-diglucoside] are within 1.5-fold of each other in LC retention time: 19.3 min for the first, 18.4 min for the second.

`COc1ccc(C=O)cc1` [anisaldehyde] and `CC(C)c1ccc(C=O)cc1` [cuminaldehyde] are within 1.5-fold of each other in LC retention time: 27.1 min for the first, 38.6 min for the second.

`Nc1ccccc1C(=O)O` [anthranilic acid] and `O=C(O)c1ccccc1` [benzoic acid] are within 1.5-fold of each other in LC retention time: 19.1 min for the first, 26.2 min for the second.

`O=c1cc(-c2ccc(O)cc2)oc2cc(OC3OC(CO)C(O)C(O)C3O)cc(O)c12` (stereo not given) [apigenin-7-O-glucoside] and `O=c1cc(-c2ccc(O)cc2)oc2cc(OC3OC(CO)C(O)C(O)C3OC3OCC(O)(CO)C3O)cc(O)c12` (stereo not given) [apiin] are within 1.5-fold of each other in LC retention time: 28.9 min for the first, 29.6 min for the second.

`O=c1cc(-c2ccc(O)cc2)oc2cc(O)cc(O)c12` [apigenin] and `O=c1cc(-c2ccccc2)oc2cc(O)cc(O)c12` [chrysin] are within 1.5-fold of each other in LC retention time: 37.1 min for the first, 40.9 min for the second.

`CCCCCC=CCC=CCC=CCC=CCCCC(=O)O` [arachidonic acid] and `CCCCCC=CCC=CCCCCCCCC(=O)OCC` [ethyl linoleate] are within 1.5-fold of each other in LC retention time: 53.5 min for the first, 56.1 min for the second.

Going from `OCC1OC(Oc2ccc(O)cc2)C(O)C(O)C1O` (stereo not given) [arbutin] to `OCC1OC(Oc2cc(O)cc(C=Cc3ccc(O)cc3)c2)C(O)C(O)C1O` (stereo not drawn) [cis-piceid], the LC retention time rises from 7.61 min to 27.2 min (3.6-fold).

`OCC1OC(Oc2cc(O)cc(C=Cc3ccc(O)c(O)c3)c2)C(O)C(O)C1O` (stereo not given) [astringin] and `OCC1OC(Oc2cc3c(O)cc(O)cc3[o+]c2-c2ccc(O)c(O)c2)C(O)C(O)C1O` (stereo not given) [cyanidin 3 galactoside] are within 1.5-fold of each other in LC retention time: 22.7 min for the first, 22.1 min for the second.

`CC1=C(C=CC(C)O)C(C)(C)CCC1` (stereo not given) [b-ionol] and `CC(=O)C=CC1C(C)CCCC1(C)C` (stereo not drawn) [dihidro alpha ionone] are within 1.5-fold of each other in LC retention time: 46.3 min for the first, 46.1 min for the second.

`O=c1cc(-c2ccccc2)oc2cc(O)c(O)c(O)c12` [baicalein] and `O=c1cc2oc(-c3cc(O)c(O)c(O)c3)c(O)cc-2c(O)c1` [delphinidin] are within 1.5-fold of each other in LC retention time: 36.6 min for the first, 27.1 min for the second.

`CCCCCCCCCCCCCCCCCCCCCC(=O)O` [behenic acid] and `CCCCCCCC/C=C\CCCCCCCCCC(=O)O` [cis-11-eicosenoic acid] are within 1.5-fold of each other in LC retention time: 58.7 min for the first, 56.2 min for the second.

`O=C(OCc1ccccc1)c1ccccc1` [benzyl benzoate] and `O=C(O)C=Cc1ccccc1` [cinnamic acid] are within 1.5-fold of each other in LC retention time: 43.5 min for the first, 31.8 min for the second.

`O=C(O)c1ccc(O)cc1O` [beta-resorcylic acid] and `COc1cc(/C=C/C(=O)O)ccc1O` [ferulic acid] are within 1.5-fold of each other in LC retention time: 19.6 min for the first, 25.9 min for the second.

`C[N+](C)(C)CC(=O)[O-]` [betaine] and `C[N+](C)(C)CCO` [choline] are within 1.5-fold of each other in LC retention time: 1.38 min for the first, 1.4 min for the second.

`C=C(C)C1CCC2(C(=O)O)CCC3(C)C(CCC4C5(C)CCC(O)C(C)(C)C5CCC43C)C12` (stereo not given) [betulinic acid] and `CC1(C)CCC2(CO)CCC3(C)C(=CCC4C5(C)CCC(O)C(C)(C)C5CCC43C)C2C1` (stereo not given) [erythrodiol] are within 1.5-fold of each other in LC retention time: 53.2 min for the first, 53.8 min for the second.

First: C=CC1=C(C)C(=Cc2[nH]c(Cc3[nH]c(C=C4NC(=O)C(C)=C4C=C)c(C)c3CCC(=O)O)c(CCC(=O)O)c2C)NC1=O [bilirubin]
Second: Nc1nc2ncc(CNc3ccc(C(=O)NC(CCC(=O)O)C(=O)O)cc3)nc2c(=O)[nH]1 (stereo not given) [folic acid]
The LC retention time of the first is 2.6-fold higher: 56.4 min for the first, 21.3 min for the second.

Compared with `O=C(O)CCCCC1SCC2NC(=O)NC21` (stereo not given) [biotin], `CCCCCCCCCC(=O)O` [decanoic acid] is 2.1-fold higher in LC retention time: 21.6 min for the first, 45.6 min for the second.

Going from `NCCCCCN` [cadaverine] to `CCCCCCCCCCCCCC(=O)OCC` [ethyl tetradecanoate], the LC retention time rises from 1.1 min to 55.1 min (50-fold).

`O=C1CC(c2ccc(O)c(O)c2)c2c(cc(O)c3c2OC(c2ccc(O)c(O)c2)C(O)C3)O1` (stereo not given) [caffeic acid+catechin condensation product] and `Oc1cc(O)c2c(c1)OC(c1ccc(O)c(O)c1)C(O)C2` (stereo not given) [epicatechin] are within 1.5-fold of each other in LC retention time: 26.1 min for the first, 20.5 min for the second.

Compared with `Cn1c(=O)c2c(ncn2C)n(C)c1=O` [caffeine], `O=C1OC(C(O)CO)C(=O)C1=O` (stereo not given) [dehydroascorbic acid] is 12-fold lower in LC retention time: 20.4 min for the first, 1.72 min for the second.

`O=C(C=Cc1ccc(O)c(O)c1)OC(C(=O)O)C(O)C(=O)O` (stereo not given) [caftaric acid] and `COc1cc(C=CC(=O)OC(C(=O)O)C(O)C(=O)O)ccc1O` (stereo not given) [fertaric acid] are within 1.5-fold of each other in LC retention time: 15.5 min for the first, 19.5 min for the second.

First: CC12CCC(CC1=O)C2(C)C (stereo not given) [camphor]
Second: CC(C)C(C)C=CC(C)C1CCC2C3=CC=C4CC(O)CCC4(C)C3CCC21C (stereo not given) [ergosterol]
The LC retention time of the first is 1.6-fold lower: 36.5 min for the first, 58.9 min for the second.

`CC(CCC(=O)O)C1CCC2C3C(O)CC4CC(O)CCC4(C)C3CCC12C` (stereo not given) [chenodeoxycholic acid] and `CC(CCC(=O)O)C1CCC2C3C(O)CC4CC(O)CCC4(C)C3CC(O)C12C` (stereo not given) [cholic acid] are within 1.5-fold of each other in LC retention time: 49.4 min for the first, 46.8 min for the second.

Going from `C=CC1CN2CCC1CC2C(O)c1ccnc2ccccc12` (stereo not given) [chinchonidine sulphate] to `CCOC(=O)Cc1c[nH]c2ccccc12` [ethyl indole-3-acetate], the LC retention time rises from 19.1 min to 35.5 min (1.9-fold).

`O=C(C=Cc1ccc(O)c(O)c1)OC1CC(O)(C(=O)O)CC(O)C1O` (stereo not given) [chlorogenic acid] and `O=C(C=Cc1ccc(O)c(O)c1)OC1C(O)CC(O)(C(=O)O)CC1O` (stereo not given) [cryptochlorogenic acid] are within 1.5-fold of each other in LC retention time: 18 min for the first, 20.1 min for the second.

`Oc1ccc(/C=C\c2cc(O)cc(O)c2)cc1` [cis-resveratrol] and `Oc1ccc(C2Oc3cc(O)cc(O)c3CC2O)cc1` (stereo not given) [epiafzelechin] are within 1.5-fold of each other in LC retention time: 30.4 min for the first, 24.4 min for the second.

First: O=C(O)CC(O)(CC(=O)O)C(=O)O [citric acid]
Second: CCOC(=O)c1cc(O)c(O)c(O)c1 [ethyl gallate]
The LC retention time of the first is 5.9-fold lower: 3.91 min for the first, 23 min for the second.

`COc1cc(C=CCO)ccc1O` [coniferyl alcohol] and `COc1cc(C=CC=O)ccc1O` [coniferyl aldehyde] are within 1.5-fold of each other in LC retention time: 22.8 min for the first, 25.9 min for the second.

`Oc1cc(O)c2cc(OC3OCC(O)C(O)C3O)c(-c3ccc(O)c(O)c3)[o+]c2c1` (stereo not given) [cyanidin-3-arabinoside] and `OCC1OC(Oc2cc3c(O)cc(O)cc3[o+]c2-c2cc(O)c(O)c(O)c2)C(O)C(O)C1O` (stereo not given) [delphinidin-3-glucoside] are within 1.5-fold of each other in LC retention time: 23.1 min for the first, 20.9 min for the second.

`CC1OC(OCC2OC(Oc3cc4c(O)cc(O)cc4[o+]c3-c3ccc(O)c(O)c3)C(O)C(O)C2O)C(O)C(O)C1O` (stereo not given) [cyanidin-3-rutinoside] and `CC1OC(OCC2OC(Oc3cc4c(O)cc(O)cc4[o+]c3-c3cc(O)c(O)c(O)c3)C(O)C(O)C2O)C(O)C(O)C1O` (stereo not given) [delphinidin 3 rutinoside] are within 1.5-fold of each other in LC retention time: 23.1 min for the first, 21.9 min for the second.

`Oc1cc(O)c2cc(O)c(-c3ccc(O)c(O)c3)[o+]c2c1` [cyanidin] and `O=C1CC(c2ccc(O)c(O)c2)Oc2cc(O)cc(O)c21` (stereo not given) [eriodictyol] are within 1.5-fold of each other in LC retention time: 28.9 min for the first, 31 min for the second.

`O=c1c(-c2ccc(O)cc2)coc2cc(O)ccc12` [daidzein] and `O=C1c2c(O)cc(O)cc2OC(c2ccc(O)cc2)C1O` (stereo not given) [dihydrokaempferol] are within 1.5-fold of each other in LC retention time: 32.5 min for the first, 27.8 min for the second.

Compared with `CC(CCC(=O)O)C1CCC2C3CCC4CC(O)CCC4(C)C3CC(O)C12C` (stereo not given) [deoxycholic acid], `O=c1ccc2cc(OC3OC(CO)C(O)C(O)C3O)c(O)cc2o1` (stereo not given) [esculin] is 2.8-fold lower in LC retention time: 49.6 min for the first, 17.8 min for the second.

Compared with `CCNCC` [diethylamine], `C=CCc1ccc(OC(C)=O)c(OC)c1` [eugenyl acetate] is 23-fold higher in LC retention time: 1.68 min for the first, 38.3 min for the second.

Compared with `O=c1oc2c(O)c(O)cc3c(=O)oc4c(O)c(O)cc1c4c23` [ellagic acid], `Cc1cc(O)c2c(c1)C(=O)c1cc(O)cc(O)c1C2=O` [emodin] is 1.5-fold higher in LC retention time: 30.2 min for the first, 46.4 min for the second.

`O=C(OC1Cc2c(O)cc(O)cc2OC1c1cc(O)c(O)c(O)c1)c1cc(O)c(O)c(O)c1` (stereo not given) [epigallo-catechin gallate] and `Oc1cc(O)c2c(c1)OC(c1cc(O)c(O)c(O)c1)C(O)C2` (stereo not given) [epigallocatechin] are within 1.5-fold of each other in LC retention time: 22.3 min for the first, 16.5 min for the second.

Work on `COc1ccc(-c2cc(=O)c3c(OC)c(OC)c(OC)cc3o2)cc1O` [eupatorin-5-methylether] yielded an LC retention time of 37.4 min.
